These results are taken from patent US10729810B2, “Methods, systems, and compositions for promoting bone growth” (Cayman Chemical Company, Inc., priority 2013, dated 2020).

Assay [1] relates to rat calvarial defect. Briefly: Rat calvarial defect model, drug-cement loaded into intact demineralized bone matrix. Type of assay: in vivo, female Sprague Dawley rats. The following applies: 5.0 mm defect; 10 mg/gm of cement; four weeks; FIG. 4. Here is the method:
Bone defects are created by removal of bone from the cranium of female Sprague Dawley rats by a bone trephine (cranial defect). Cranial defects are 5.0 mm in diameter and the cranium approximately 1 mm thick.
EXAMPLE 2E′ is delivered inside calcium phosphate cement that, after loading with drug set inside three voids each of approximately 1.0 mm in diameter drilled into a solid demineralized bone matrix circular block of 5.0 mm in diameter and 1 mm thickness. EXAMPLE 2E′ is tested at 10 mg/gm of cement. A negative control group treated with dosing matrix containing no drug (Vehicle) is also included in the study.
Dosing solutions are made from a 5 mg/ml EXAMPLE 2E′ stock which is made by dissolving 2.08 mg of neat EXAMPLE 2E′ in 416 μl of 100% ethanol.
The volume of each dosing void is π*r^2*matrix thickness=3.14*0.5^2*1=0.8 μl. Thus a 5 mm solid demineralized matrix with three voids filled with cement contains 2.4 μl of loading cement. The cement that is used weighs 107 mg for 100 μl volume. Thus 2.4 ul of volume is occupied by 2.6 mg of cement. A 10 mg/gm dosing cement provides 26 ug of EXAMPLE 2E′ for each 5 mm intact demineralized bone matrix block. […]
The area measured each week is compared to that of the first week and the degree of repair calculated by the following formula: (original area−current area)/original area*100

Assay [2] has as its system osteoporotic femur. Briefly: Bone density of osteoporotic femur after osteotomy with drug-cement insert in ovariectomized rats. Type of assay: in vivo, Female Sprague Dawley rats. The following applies: 10 mg/gm cement insert; three weeks; FIG. 5. Here is the method: Dosing solutions are made from a 5 mg/ml Example 2E' stock which is made by dissolving 2.08 mg of neat Example 2E' in 416 μl of 100% ethanol. The dosing solution for Example 2E' was made by adding 44.4 μL of the 5 mg/ml stock to 22.2 mg of calcium phosphate cement powder. The Vehicle dosing solution was made by adding 50.4 μl of ethanol containing no Example 2E' to 25.2 mg of calcium phosphate cement powder. After the ethanol has been vented off, the cement is wetted with a setting solution and mixed thoroughly for 1 minute as the cement begins to set. The cement is separated into five aliquots and placed on a glass microscope slide. […] After obtaining the CT image the cross sectional density of the bone 3 mm dorsal to the implant site is measured in three places and the measurements averaged. The density of the phantom is measured at the same time and is compared to the phantom measurement on week 0. […] For example the density of the femur of a vehicle treated rat imaged on week 0 is measured at 3028, 3597 and 3329 units (average=3318) and the phantom measured 4209 units. […] The relative density on bone at week 3 compared to week 0 is then calculated as: average week 3normalized/average week 0*100=3378/3318*100=101.8% The mean change in bone density of both groups after three weeks of treatment is shown in FIG. 5. […]

SMILES strings stand for the structures.

With `CCC#CC[C@H](C)[C@H](O)/C=C/[C@H]1CCC(=O)N1CCCCCCC(=O)O` [2E′, 7-((R)-2-((3S,4S,E)-3-hydroxy-4-methylnon-1-en-6-yn-1-yl)-5-oxopyrrolidin-1-yl)heptanoic acid], the “Healing of a calvarial bone defect, loaded into intact demineralized bone matrix” value in assay [1] was “Accelerated Healing”. For the same molecule, the “Bone density of osteoporotic femur” value in assay [2] was “Increased Bone Density”.
